Calls of active or inactive are those of the source.
Assays:
Beta-lactamase [1] = target: Beta-lactamase (Pseudomonas aeruginosa, UniProt Q79MP6);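 note: biochemical dose-response test of metallo-beta-lactamase enzyme inhibition, read out by epi-absorbance; purified recombinant IMP-1 metallo-beta-lactamase with nitrocefin as substrate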
[2] = target: ATP-dependent molecular chaperone HSP82 (Candida albicans (strain WO-1) (Yeast), UniProt C4YTQ8); assay: loss of DOC-induced GRE-beta-galactosidase reporter signal, dose response, Hsp90 inhibitor project, S. cerevisiae, luminescence (AID 2400); type: functional, cell-based;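 note: beta-galactosidase luminescence from glucocorticoid response element reporter as proxy for Hsp90 function; inhibitor potency where signal loss means Hsp90 inhibition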
[3] = NIH-3T3 fibroblast cytotoxicity, dose response, cytotoxicity control, cell-based, fluorescence, Alamar Blue, secondary assay (AID 2327); type: functional;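 note: NIH-3T3 mouse fibroblasts cultured with fluconazole at 8 µg/mL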
Beta-lactamase [4] = target: Beta-lactamase (Salmonella choleraesuis (strain SC-B67), UniProt Q5J463)
[5] = C. albicans growth with fluconazole, confirmation, fluorescence, retest (AID 2467); type: functional, cell-based
[6] = target: T1, Microphthalmia-associated transcription factor (Homo sapiens, UniProt O75030); assay: TRPM1 promoter luciferase signal decrease, dose response, MITF inhibitor project, cell-based, SK-MEL-5, cherry-picked, set 3 (AID 493073); type: functional
T1 sequence (O75030 whole entry): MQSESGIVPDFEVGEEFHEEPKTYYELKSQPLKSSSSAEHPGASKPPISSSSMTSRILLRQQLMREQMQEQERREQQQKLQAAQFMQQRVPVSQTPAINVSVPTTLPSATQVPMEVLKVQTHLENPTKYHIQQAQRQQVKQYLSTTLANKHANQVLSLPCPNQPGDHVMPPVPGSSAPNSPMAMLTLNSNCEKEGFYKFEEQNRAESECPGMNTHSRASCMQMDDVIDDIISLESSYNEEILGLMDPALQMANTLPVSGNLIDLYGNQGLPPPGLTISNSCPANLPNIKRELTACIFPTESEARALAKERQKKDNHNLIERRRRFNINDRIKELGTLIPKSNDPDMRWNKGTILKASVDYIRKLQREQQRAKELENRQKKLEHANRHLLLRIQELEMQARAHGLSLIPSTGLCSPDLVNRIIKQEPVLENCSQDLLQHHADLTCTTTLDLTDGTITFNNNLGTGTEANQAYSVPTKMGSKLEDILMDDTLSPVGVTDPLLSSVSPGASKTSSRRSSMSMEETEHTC

[7] = target: Serine/threonine-protein phosphatase (Candida dubliniensis (strain CD36 / CBS 7987 / NCPF 3949 / NRRLY-17841) (Yeast), UniProt B9W6M3); assay: calcineurin pathway inhibitors in yeast reporter, dose response, S. cerevisiae, CDRE-lacZ, luminescence, secondary (AID 2388); type: functional, cell-based;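 note: yeast reporter cells carrying a calcineurin-responsive lacZ construct stimulated with calcium chloride; luminescent beta-galactosidase reporter signal in whole cells rather than isolated phosphatase activity; potency for inhibition where a drop in reporter signal means calcineurin blockade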
[8] = target: T2, Sentrin-specific protease 6 (Homo sapiens, UniProt Q9GZR1); assay: SAR Analysis of small molecule inhibitors of Sentrin-specific protease 6 (SENP6) using a Luminescent assay. [Related pubchem assays (depositor defined):AID2582, AID2599]; type: functional
T2 sequence (Q9GZR1 whole entry): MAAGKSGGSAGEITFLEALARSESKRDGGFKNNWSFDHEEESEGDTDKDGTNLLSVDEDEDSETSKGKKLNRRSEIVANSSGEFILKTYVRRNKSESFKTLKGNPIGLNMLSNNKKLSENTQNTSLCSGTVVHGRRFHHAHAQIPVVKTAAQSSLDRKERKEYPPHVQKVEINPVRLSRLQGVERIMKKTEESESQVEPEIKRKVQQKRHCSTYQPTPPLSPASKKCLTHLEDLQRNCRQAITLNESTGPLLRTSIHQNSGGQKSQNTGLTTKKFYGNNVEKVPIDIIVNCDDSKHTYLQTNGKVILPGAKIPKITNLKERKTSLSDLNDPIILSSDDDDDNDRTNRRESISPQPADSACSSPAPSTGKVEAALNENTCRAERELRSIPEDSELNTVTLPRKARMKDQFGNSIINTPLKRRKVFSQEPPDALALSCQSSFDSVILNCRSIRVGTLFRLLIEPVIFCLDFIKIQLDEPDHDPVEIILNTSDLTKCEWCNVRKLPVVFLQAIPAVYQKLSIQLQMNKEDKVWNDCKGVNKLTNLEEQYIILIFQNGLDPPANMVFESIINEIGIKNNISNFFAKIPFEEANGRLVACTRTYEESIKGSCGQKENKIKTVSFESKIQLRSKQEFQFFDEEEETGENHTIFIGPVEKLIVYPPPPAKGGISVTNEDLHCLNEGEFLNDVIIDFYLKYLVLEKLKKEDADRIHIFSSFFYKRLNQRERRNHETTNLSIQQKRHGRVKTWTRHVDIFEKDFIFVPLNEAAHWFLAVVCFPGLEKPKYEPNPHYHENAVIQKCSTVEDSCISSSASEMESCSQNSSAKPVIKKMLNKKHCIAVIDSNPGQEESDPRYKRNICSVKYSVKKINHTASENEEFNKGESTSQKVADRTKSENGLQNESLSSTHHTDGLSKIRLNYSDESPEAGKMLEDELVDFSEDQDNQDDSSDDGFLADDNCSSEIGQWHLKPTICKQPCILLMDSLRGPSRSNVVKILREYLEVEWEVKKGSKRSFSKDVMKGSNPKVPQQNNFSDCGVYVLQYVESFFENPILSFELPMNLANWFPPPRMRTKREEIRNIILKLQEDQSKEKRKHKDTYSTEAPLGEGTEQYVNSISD

[9] = target: T3, Sentrin-specific protease 8 (Homo sapiens, UniProt Q96LD8); assay: SENP8 protease inhibitors, SAR follow-up, biochemical, luminescence (AID 504501); type: functional
T3 sequence (Q96LD8 whole entry): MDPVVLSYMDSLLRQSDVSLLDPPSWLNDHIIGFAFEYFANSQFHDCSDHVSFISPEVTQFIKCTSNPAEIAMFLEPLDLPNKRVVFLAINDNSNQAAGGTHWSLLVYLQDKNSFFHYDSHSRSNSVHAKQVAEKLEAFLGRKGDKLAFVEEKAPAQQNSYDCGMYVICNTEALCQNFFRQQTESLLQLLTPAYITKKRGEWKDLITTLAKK

[10] = target: T4, Sentrin-specific protease 7 (Homo sapiens, UniProt Q9BQF6); assay: SENP7 protease inhibitors, SAR follow-up, biochemical, luminescence (AID 504497); type: functional
T4 sequence (Q9BQF6 whole entry): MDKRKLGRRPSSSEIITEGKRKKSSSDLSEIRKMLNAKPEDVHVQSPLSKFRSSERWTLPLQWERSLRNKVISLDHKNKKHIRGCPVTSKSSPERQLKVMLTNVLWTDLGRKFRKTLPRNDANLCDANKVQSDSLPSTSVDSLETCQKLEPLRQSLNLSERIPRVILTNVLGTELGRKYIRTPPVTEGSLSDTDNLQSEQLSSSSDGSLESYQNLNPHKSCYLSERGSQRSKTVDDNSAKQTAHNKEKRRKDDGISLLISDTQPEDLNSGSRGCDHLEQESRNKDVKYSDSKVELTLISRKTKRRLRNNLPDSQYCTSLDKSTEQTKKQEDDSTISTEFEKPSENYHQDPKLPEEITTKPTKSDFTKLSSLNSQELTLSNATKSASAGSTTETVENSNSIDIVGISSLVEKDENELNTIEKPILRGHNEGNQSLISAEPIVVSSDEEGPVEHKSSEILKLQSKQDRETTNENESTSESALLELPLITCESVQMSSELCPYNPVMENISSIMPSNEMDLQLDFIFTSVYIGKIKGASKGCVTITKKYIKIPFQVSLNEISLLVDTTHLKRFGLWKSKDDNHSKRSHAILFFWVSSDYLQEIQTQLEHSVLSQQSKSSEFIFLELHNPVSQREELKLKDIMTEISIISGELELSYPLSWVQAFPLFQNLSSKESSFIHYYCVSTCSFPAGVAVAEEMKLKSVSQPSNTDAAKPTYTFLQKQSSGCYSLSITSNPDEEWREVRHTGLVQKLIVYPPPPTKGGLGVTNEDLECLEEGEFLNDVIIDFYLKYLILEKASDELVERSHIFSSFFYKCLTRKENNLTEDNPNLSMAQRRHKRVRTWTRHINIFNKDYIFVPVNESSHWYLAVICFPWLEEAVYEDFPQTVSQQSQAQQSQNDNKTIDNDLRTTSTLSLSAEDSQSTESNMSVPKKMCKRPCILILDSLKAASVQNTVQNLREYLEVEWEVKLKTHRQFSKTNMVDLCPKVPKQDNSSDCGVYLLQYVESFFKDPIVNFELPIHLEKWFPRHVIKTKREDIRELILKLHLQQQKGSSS

Caspase-3 = target: T5, Caspase-3 (Homo sapiens, UniProt P42574); assay: SAR Analysis of small molecule inhibitors of Sentrin-specific proteases (SENPs) using a Caspase-3 Selectivity assay. [Related pubchem assays (depositor defined):AID2540, AID2599, AID434973, AID489001]; type: functional
T5 sequence (P42574 whole entry): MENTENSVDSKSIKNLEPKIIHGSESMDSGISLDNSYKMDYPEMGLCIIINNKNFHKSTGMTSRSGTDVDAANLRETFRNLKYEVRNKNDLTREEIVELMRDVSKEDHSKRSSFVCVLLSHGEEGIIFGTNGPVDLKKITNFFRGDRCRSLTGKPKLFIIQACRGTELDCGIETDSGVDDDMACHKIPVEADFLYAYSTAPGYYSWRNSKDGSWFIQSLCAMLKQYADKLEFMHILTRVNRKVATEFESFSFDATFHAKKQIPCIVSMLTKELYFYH

[11] = cytotoxicity toward NIH3T3 fibroblasts, dose response, counter-screen, cell-based, ATP luminescence, mouse fibroblasts (AID 2010); type: functional;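 note: cells exposed to compound for about 90 hours before reading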
[12] = cytotoxicity in HEK-293T NF-kB-Luc cells, dose response, cytotoxicity control for B/T-cell NF-kB inhibitor project, cell-based, uHTS hits (AID 489019); type: functional;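 note: IC50 reflects cytotoxicity as loss of cell viability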
[13] = target: T6, COUP transcription factor 2 (Homo sapiens, UniProt P24468); assay: Luminescence-based cell-based high throughput dose response assay to identify inhibitors of COUP-TFII (NR2F2).; type: functional;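 note: HEK293 cells transiently cotransfected with COUP-TFII expression vector and reporter; luciferase reporter luminescence driven by COUP-TFII from the pX2-168 reporter plasmid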
T6 sequence (P24468 whole entry): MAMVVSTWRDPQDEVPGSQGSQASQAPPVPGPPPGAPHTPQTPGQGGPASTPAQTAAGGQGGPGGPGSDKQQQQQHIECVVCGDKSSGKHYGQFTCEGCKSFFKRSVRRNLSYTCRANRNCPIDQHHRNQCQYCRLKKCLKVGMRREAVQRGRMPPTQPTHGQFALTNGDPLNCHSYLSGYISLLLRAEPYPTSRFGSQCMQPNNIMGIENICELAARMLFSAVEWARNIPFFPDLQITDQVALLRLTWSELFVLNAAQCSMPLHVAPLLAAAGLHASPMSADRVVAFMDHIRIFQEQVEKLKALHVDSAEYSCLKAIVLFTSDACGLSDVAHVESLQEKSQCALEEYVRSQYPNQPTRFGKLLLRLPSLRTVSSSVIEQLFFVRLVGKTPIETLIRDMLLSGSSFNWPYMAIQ

[14] = target: T7, DNA repair protein RAD52 homolog (Homo sapiens, UniProt P43351); type: functional, biochemical
T7 sequence (P43351 whole entry): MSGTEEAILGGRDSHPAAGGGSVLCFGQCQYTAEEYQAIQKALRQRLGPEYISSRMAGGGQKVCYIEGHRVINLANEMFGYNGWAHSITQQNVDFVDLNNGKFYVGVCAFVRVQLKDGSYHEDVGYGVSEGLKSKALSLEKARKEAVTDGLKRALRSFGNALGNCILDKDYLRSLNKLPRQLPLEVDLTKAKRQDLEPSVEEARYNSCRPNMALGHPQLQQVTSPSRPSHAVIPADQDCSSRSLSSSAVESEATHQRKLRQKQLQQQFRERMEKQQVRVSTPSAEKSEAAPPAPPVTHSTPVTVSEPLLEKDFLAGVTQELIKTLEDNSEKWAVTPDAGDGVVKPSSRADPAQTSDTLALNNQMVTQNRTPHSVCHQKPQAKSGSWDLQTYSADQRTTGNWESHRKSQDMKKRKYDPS

[15] = inhibitors of intracellular T. cruzi replication, confirmation, NIH3T3 host cells, beta-gal luminescence (AID 2044); type: functional, cell-based;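 note: intracellular parasites grown in NIH/3T3 mouse fibroblasts as host cells; luminescent beta-galactosidase reporter signal from transgenic T. cruzi replicating inside host cells; inhibitors lower the luminescence signal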
Jurkat = assay: antigen receptor-induced NF-kB inhibitors, dose response, Jurkat, luciferase reporter, luminescence, B- and T-cell (AID 489004); type: functional, cell-based; details: Homo sapiens;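 note: NF-kB luciferase reporter Jurkat cells stimulated with PMA plus ionomycin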

Sequence of ATP-dependent molecular chaperone HSP82 (C4YTQ8 whole entry): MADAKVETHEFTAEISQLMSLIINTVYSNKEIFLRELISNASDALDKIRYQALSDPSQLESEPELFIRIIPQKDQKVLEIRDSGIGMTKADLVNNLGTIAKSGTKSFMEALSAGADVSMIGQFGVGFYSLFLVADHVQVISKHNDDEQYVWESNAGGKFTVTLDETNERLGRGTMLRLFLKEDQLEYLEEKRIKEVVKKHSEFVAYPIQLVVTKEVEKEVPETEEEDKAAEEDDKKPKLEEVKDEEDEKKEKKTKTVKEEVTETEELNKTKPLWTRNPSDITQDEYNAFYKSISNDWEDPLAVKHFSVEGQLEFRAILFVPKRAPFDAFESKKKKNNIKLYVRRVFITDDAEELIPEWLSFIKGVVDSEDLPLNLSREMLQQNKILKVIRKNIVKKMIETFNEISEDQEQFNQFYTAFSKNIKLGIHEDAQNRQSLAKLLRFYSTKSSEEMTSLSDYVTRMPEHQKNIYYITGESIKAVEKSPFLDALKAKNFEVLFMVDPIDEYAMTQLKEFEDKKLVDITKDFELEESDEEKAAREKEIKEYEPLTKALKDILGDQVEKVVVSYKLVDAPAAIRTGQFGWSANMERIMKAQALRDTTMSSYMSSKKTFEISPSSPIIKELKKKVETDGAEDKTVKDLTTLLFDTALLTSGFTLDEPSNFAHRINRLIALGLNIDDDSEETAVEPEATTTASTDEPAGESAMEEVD
Sequence of Serine/threonine-protein phosphatase (B9W6M3 whole entry): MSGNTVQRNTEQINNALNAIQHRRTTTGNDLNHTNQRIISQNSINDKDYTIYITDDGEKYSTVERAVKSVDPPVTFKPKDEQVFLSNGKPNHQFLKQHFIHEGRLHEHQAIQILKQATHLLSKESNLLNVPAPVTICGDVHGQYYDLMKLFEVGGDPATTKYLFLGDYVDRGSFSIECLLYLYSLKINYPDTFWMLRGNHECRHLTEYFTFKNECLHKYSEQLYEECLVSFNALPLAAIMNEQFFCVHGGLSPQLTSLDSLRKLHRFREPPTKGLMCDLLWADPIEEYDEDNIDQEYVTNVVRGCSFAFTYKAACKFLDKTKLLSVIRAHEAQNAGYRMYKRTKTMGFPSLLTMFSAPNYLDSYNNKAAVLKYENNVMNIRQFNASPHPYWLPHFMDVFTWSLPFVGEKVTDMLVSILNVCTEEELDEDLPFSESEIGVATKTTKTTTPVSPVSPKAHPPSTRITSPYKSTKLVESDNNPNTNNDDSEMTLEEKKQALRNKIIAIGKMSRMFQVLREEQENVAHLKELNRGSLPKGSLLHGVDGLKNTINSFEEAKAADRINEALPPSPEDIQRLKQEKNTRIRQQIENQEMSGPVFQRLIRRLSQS
Sequence of Beta-lactamase (Pseudomonas aeruginosa, UniProt Q79MP6) (Q79MP6 whole entry): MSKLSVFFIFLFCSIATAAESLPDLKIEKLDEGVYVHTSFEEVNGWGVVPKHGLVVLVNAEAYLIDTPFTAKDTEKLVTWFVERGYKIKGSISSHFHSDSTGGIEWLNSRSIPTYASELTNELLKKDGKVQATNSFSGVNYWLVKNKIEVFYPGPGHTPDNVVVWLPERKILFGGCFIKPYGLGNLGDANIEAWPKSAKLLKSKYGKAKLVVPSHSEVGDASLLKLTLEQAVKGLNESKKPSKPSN
Sequence of Beta-lactamase (Salmonella choleraesuis (strain SC-B67), UniProt Q5J463) (Q5J463 whole entry): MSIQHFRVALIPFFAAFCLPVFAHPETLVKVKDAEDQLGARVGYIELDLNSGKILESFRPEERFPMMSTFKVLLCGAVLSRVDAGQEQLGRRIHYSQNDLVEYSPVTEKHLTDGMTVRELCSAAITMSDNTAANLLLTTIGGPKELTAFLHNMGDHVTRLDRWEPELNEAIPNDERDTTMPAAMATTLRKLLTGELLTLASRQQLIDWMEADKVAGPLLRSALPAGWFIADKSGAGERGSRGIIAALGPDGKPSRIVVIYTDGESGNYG

| Compound | IC50 (Beta-lactamase [1]) | EC50 [2] | EC50 [3] | IC50 (Beta-lactamase [4]) | EC50 [5] | AC50 [6] | EC50 [7] | IC50 [8] | IC50 [9] | IC50 [10] | IC50 (Caspase-3) | EC50 [11] | IC50 [12] | IC50 [13] | AC50 [14] | EC50 [15] | EC50 (cells) | IC50 (Jurkat) |
| --- | --- | --- | --- | --- | --- | --- | --- | --- | --- | --- | --- | --- | --- | --- | --- | --- | --- | --- |
| CC(C)n1cc(/C=C/c2cc[n+](C)cc2)c2ccccc21 | 41.8 µM (inactive) | > 150 µM (inactive) | 130 µM (inconclusive) | 40.1 µM (inactive) | 0.634 µM (active) | 8.14 µM (active) | > 180 µM (inactive) |  |  |  |  |  |  |  |  |  |  |  |
| Oc1ccc(Br)cc1/C=N/Nc1cc(N2CCCC2)nc(N2CCCC2)n1 |  |  |  |  |  |  |  | > 99 µM (inactive) | > 99 µM (inactive) | > 99 µM (inactive) | > 99 µM (inactive) |  |  |  |  |  |  |  |
| CC[n+]1c(C=C2C=C(C)OC(C)=C2)sc2ccccc21 |  | 55.9 µM (active) | 126 µM (active) |  | 0.239 µM (active) |  | 29.6 µM (active) |  |  |  |  | > 60 µM (not active) | > 80 µM (inactive) | 4.51 µM (active) | 8.17 µM (active) | < 0.1 µM (active) | 0.006 µM (active) | 3.99 µM (active) |
